These results are taken from PubChem BioAssay AID248 (DTP/NCI, 2004).

Values joined by “and” are separate entries in the source; they are usually repeats but may differ in a detail not shown here. Identical values can stand only once. Toxic doses and inconclusive results are not listed.

The test has as its system L1210 leukemia ip in BDF1 mice, survival T/C. Description: NCI In Vivo Anticancer Drug Screen. Data for tumor model L1210 Leukemia (intraperitoneal) in B6D2F1 (BDF1) mice. To be noted: endpoint: mean survival time, higher = longer survival. The gist of the method: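 Tumor cells were implanted, animals were treated, and survival was followed. The result divides the treated measurement by the vehicle-control measurement.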

Where [1] appears, read: dose: 100.0 mg/kg/injection, schedule: Q01DX001 (ip), vehicle: carboxymethylcellulose (CMC).
Where [2] appears, read: dose: 100.0 mg/kg/injection, schedule: Q01DX009 (ip), vehicle: Klucel (hydroxypropylcellulose) (HPC).
Where [3] appears, read: dose: 100.0 mg/kg/injection, schedule: Q04DX003 (ip), vehicle: Klucel (hydroxypropylcellulose) (HPC).
[4] abbreviates: dose: 200.0 mg/kg/injection, schedule: Q01DX009 (ip), vehicle: Klucel (hydroxypropylcellulose) (HPC).
[5] abbreviates: dose: 200.0 mg/kg/injection, schedule: Q04DX003 (ip), vehicle: Klucel (hydroxypropylcellulose) (HPC).
The mark [6] stands for this setting: dose: 400.0 mg/kg/injection, schedule: Q04DX003 (ip), vehicle: Klucel (hydroxypropylcellulose) (HPC).
The mark [7] stands for this setting: dose: 100.0 mg/kg/injection, schedule: Q04DX003 (ip), vehicle: saline.
[8] abbreviates: dose: 200.0 mg/kg/injection, schedule: Q04DX003 (ip), vehicle: saline.
[9] abbreviates: dose: 400.0 mg/kg/injection, schedule: Q04DX003 (ip), vehicle: saline.
Where [10] appears, read: dose: 100.0 mg/kg/injection, schedule: Q01DX001 (ip), vehicle: saline.
[11] abbreviates: dose: 200.0 mg/kg/injection, schedule: Q01DX001 (ip), vehicle: saline.
The mark [12] stands for this setting: dose: 400.0 mg/kg/injection, schedule: Q01DX001 (ip), vehicle: saline.
The mark [13] stands for this setting: dose: 200.0 mg/kg/injection, schedule: Q01DX001 (ip), vehicle: carboxymethylcellulose (CMC).
[14] abbreviates: dose: 400.0 mg/kg/injection, schedule: Q01DX001 (ip), vehicle: carboxymethylcellulose (CMC).

Turning to `ONc1nc(NO)c2[nH]cnc2n1`, the T/C is, setting by setting: (dose: 0.25 mg/kg/injection, schedule: Q01DX009 (ip), vehicle: other) 109 % of control; (dose: 1.2 mg/kg/injection, schedule: Q01DX009 (ip), vehicle: carboxymethylcellulose (CMC)) 115 % of control; (dose: 2.5 mg/kg/injection, schedule: Q01DX009 (ip), vehicle: other) 165 % of control; (dose: 3.7 mg/kg/injection, schedule: Q01DX009 (ip), vehicle: carboxymethylcellulose (CMC)) 150 % of control; (dose: 5.0 mg/kg/injection, schedule: Q01DX009 (ip), vehicle: other) 202 % of control; (dose: 10.0 mg/kg/injection, schedule: Q01DX009 (ip), vehicle: other) 210 % of control. The T/C is 203 % of control (dose: 10.5 mg/kg/injection, schedule: Q01DX009 (ip), vehicle: other); 265 % of control (dose: 18.0 mg/kg/injection, schedule: Q01DX009 (ip), vehicle: other); 114 % of control (dose: 18.7 mg/kg/injection, schedule: Q01DX009 (oral), vehicle: carboxymethylcellulose (CMC)); 150 % of control (dose: 30.0 mg/kg/injection, schedule: Q01DX009 (ip), vehicle: carboxymethylcellulose (CMC)); 192 % of control (dose: 30.0 mg/kg/injection, schedule: Q01DX009 (ip), vehicle: other); 154 % of control (dose: 44.0 mg/kg/injection, schedule: Q01DX001 (ip), vehicle: carboxymethylcellulose (CMC)). Also, the T/C is, setting by setting: (dose: 60.0 mg/kg/injection, schedule: Q01DX009 (ip), vehicle: carboxymethylcellulose (CMC)) 150 % of control and 153 % of control; (dose: 66.0 mg/kg/injection, schedule: Q01DX001 (ip), vehicle: carboxymethylcellulose (CMC)) 172 % of control; (dose: 75.0 mg/kg/injection, schedule: Q01DX009 (oral), vehicle: carboxymethylcellulose (CMC)) 122 % of control; under setting [1], 175 % of control; (dose: 150.0 mg/kg/injection, schedule: Q01DX001 (ip), vehicle: carboxymethylcellulose (CMC)) 214 % of control.
In the case of `COc1ccc(NC(=O)CC=C(C)C)nn1`, the T/C was 100 % of control (dose: 50.0 mg/kg/injection, schedule: Q01DX009 (ip), vehicle: Klucel (hydroxypropylcellulose) (HPC)); 100 % of control under setting [2]; 102 % of control under setting [3]; 91 % of control under setting [4]; 104 % of control under setting [5]; 110 % of control under setting [6].
Regarding `NC(=O)CSc1cc(Cl)c(Cl)cc1Cl`, the T/C (dose: 50.0 mg/kg/injection, schedule: Q04DX003 (ip), vehicle: saline with Tween-80) is 103 % of control; the T/C (dose: 100.0 mg/kg/injection, schedule: Q04DX003 (ip), vehicle: saline with Tween-80) was 106 % of control; the T/C (dose: 200.0 mg/kg/injection, schedule: Q04DX003 (ip), vehicle: saline with Tween-80) is 90 % of control.
On to `COc1ccc2c(c1OC)C(=O)OC2c1ccc(O)c(Br)c1` (stereo not drawn), for which the T/C reads like this: (dose: 100.0 mg/kg/injection, schedule: Q01DX009 (ip), vehicle: alcohol) 95 % of control; under setting [7], 109 % of control; (dose: 200.0 mg/kg/injection, schedule: Q01DX009 (ip), vehicle: alcohol) 97 % of control; under setting [8], 106 % of control; (dose: 400.0 mg/kg/injection, schedule: Q01DX009 (ip), vehicle: alcohol) 95 % of control; under setting [9], 101 % of control.
For the compound `O=[N+]([O-])c1cccc(NSNc2cccc([N+](=O)[O-])c2)c1`, the T/C (dose: 50.0 mg/kg/injection, schedule: Q01DX001 (ip), vehicle: Klucel (hydroxypropylcellulose) (HPC)) was 100 % of control; the T/C (dose: 100.0 mg/kg/injection, schedule: Q01DX001 (ip), vehicle: Klucel (hydroxypropylcellulose) (HPC)) was 98 % of control; the T/C (dose: 200.0 mg/kg/injection, schedule: Q01DX001 (ip), vehicle: Klucel (hydroxypropylcellulose) (HPC)) is 87 % of control.
For `C/C(=C\C(=O)Nc1ncn[nH]1)Nc1ncn[nH]1`, the T/C reads like this: under setting [2], 100 % of control; under setting [3], 95 % of control; under setting [4], 92 % of control; under setting [5], 106 % of control; (dose: 400.0 mg/kg/injection, schedule: Q01DX009 (ip), vehicle: Klucel (hydroxypropylcellulose) (HPC)) 102 % of control; under setting [6], 93 % of control.
Regarding `COc1ccc(C)cc1NC(=O)NNC(=O)c1ccc(Cl)cc1`, the T/C runs as follows: (dose: 50.0 mg/kg/injection, schedule: Q01DX009 (ip), vehicle: saline with Tween-80) 98 % of control; (dose: 100.0 mg/kg/injection, schedule: Q01DX009 (ip), vehicle: saline with Tween-80) 98 % of control; (dose: 200.0 mg/kg/injection, schedule: Q01DX009 (ip), vehicle: saline with Tween-80) 98 % of control.
Take `O=C(Nc1ccc(C(=O)Nc2cccc(C3=NCCN3)c2)cc1)c1ccc(C2=NCCN2)cc1`: the T/C runs as follows: (dose: 1.88 mg/kg/injection, schedule: Q01DX Z (ip), vehicle: saline) 89 % of control; (dose: 3.75 mg/kg/injection, schedule: Q01DX Z (ip), vehicle: saline) 104 % of control; (dose: 7.5 mg/kg/injection, schedule: Q01DX Z (ip), vehicle: saline) 102 % of control; (dose: 15.0 mg/kg/injection, schedule: Q01DX Z (ip), vehicle: saline) 124 % of control.
`CC(=O)OCC1(C[N+](C)(C)C)CC1`: the T/C runs as follows: under setting [10], 103 % of control; under setting [7], 100 % of control; under setting [11], 97 % of control; under setting [8], 100 % of control; under setting [12], 105 % of control; under setting [9], 100 % of control.
Turning to `O=S1(=O)CCc2ccccc21`, the T/C was 97 % of control under setting [10], 111 % of control under setting [11] and 104 % of control under setting [12].
Turning to `O=C1OCC/C1=C/CCCCCC/C=C1\CCOC1=O`, the T/C runs as follows: (dose: 50.0 mg/kg/injection, schedule: Q01DX009 (ip), vehicle: DMSO) 92 % of control; (dose: 100.0 mg/kg/injection, schedule: Q01DX009 (ip), vehicle: DMSO) 90 % of control; (dose: 100.0 mg/kg/injection, schedule: Q04DX003 (ip), vehicle: DMSO) 102 % of control; (dose: 200.0 mg/kg/injection, schedule: Q01DX009 (ip), vehicle: DMSO) 91 % of control; (dose: 200.0 mg/kg/injection, schedule: Q04DX003 (ip), vehicle: DMSO) 101 % of control; (dose: 400.0 mg/kg/injection, schedule: Q04DX003 (ip), vehicle: DMSO) 94 % of control.
As to `Cc1nc2nc(N)[nH]c(=O)c2[nH]c1=O`, the T/C (dose: 100.0 mg/kg/injection, schedule: Q01DX009 (ip), vehicle: saline) was 89 % of control; the T/C under setting [7] is 100 % of control; the T/C (dose: 200.0 mg/kg/injection, schedule: Q01DX009 (ip), vehicle: saline) was 88 % of control; the T/C under setting [8] was 96 % of control; the T/C under setting [9] was 96 % of control.
In the case of `CC(=O)OC1C=CC(Oc2ccc([N+](=O)[O-])cc2)OC1CO` (stereo not drawn), the T/C is 93 % of control under setting [7], 91 % of control under setting [8] and 96 % of control under setting [9].
For `CC12CCC(=O)C=C1CCC1C2CCC2(C)C1CCC2(O)C#CCN(CCCl)CCCl` (stereo not drawn), the T/C (dose: 100.0 mg/kg/injection, schedule: Q01DX001 (sc), vehicle: steriod suspending solution) is 96 % of control; the T/C (dose: 200.0 mg/kg/injection, schedule: Q01DX001 (sc), vehicle: steriod suspending solution) is 104 % of control; the T/C (dose: 400.0 mg/kg/injection, schedule: Q01DX001 (sc), vehicle: steriod suspending solution) was 98 % of control.
For the compound `O=C(COc1cccc(Cl)c1)Nc1cccc(NC(=O)c2cccc(S(=O)(=O)F)c2)c1`, the T/C by setting is: under setting [1], 88 % of control; under setting [13], 88 % of control; under setting [14], 97 % of control.
As for `O=c1[nH]nc(S(=O)(=O)c2ccccc2)c(=O)[nH]1`, the T/C is 95 % of control under setting [1], 95 % of control under setting [13] and 95 % of control under setting [14].
For `Nc1nc(O)c2[nH]c(N=Nc3ccc(-c4ccc(N=Nc5nc6nc(N)nc(O)c6[nH]5)cc4)cc3)nc2n1`, the T/C was 98 % of control under setting [3], 93 % of control under setting [5] and 88 % of control under setting [6].
